Patent US10287298B2, “Nitrogen-containing analogs of salinomycin, synthesis and use against cancer stem cells and malaria” (Centre National de la Recherche Scientifique (CNRS), priority 2014, dated 2019)
pIC50: −log10 of the molar value. Read-outs that look alike come from different tables or passages of the source.

Legend:
HMLER CD24+ cells = assay: Cell viability assay (CellTiter-Blue), IC50 assessment; assay type: cell-based; conditions: Homo sapiens, read-out: IC50 CD24+
Procedure: FIG. 1 represents viability of HMLER CD24− cells (full line) and HMLER CD24+ cells (dotted line) at different concentration of salinomycine (1A), AM5 […] or AM13 (1D).
Cell viability assay was carried out by plating 1000 cells per well in 96-well plates. NAC (2 mM, A9165 Sigma) or DFO (1 mM) were pretreated 2 hours prior to the compound treatment. CellTiter-Blue® Reagent (Promega; G3582) (20 μl/well) was added after 24, 48, or 72 hours treatment and cells were incubated for 1 hour before recording fluorescence (560(20)Ex/590(10)Em) using a Perkin Elmer Wallac 1420 Victor2 Microplate Reader.

SW480 = assay: Cell death IC50, Annexin V-FITC/PI flow cytometry; assay type: cell-based; conditions: Homo sapiens, read-out: IC50 SW480
Procedure: (§1) The cells were seeded in a 6-well plate at density 5.105 cells/well and cultured overnight. The cells were then treated with various concentration (15, 30, 100, 500, 1000 and 10.000 nM) of salinomycine, AM5 and AM23 for 72 h, 96 h and 108 h. After treatment, cell death was quantified using Annexin V-FITC/Propidium Iodide (PI) assay according to the manufacturer's protocol (FITC Annexin V Apoptosis Detection Kit II, 556570, BD Pharmingen™) and analyzed by a LSRFortessa™ flow cytometer (BD Bioscience, San Jose, Calif.). The data were processed using Cell Quest software (BD Biosciences). Dose-response cell death curves were determined for indicated time.
(§2) For tumor cells, the cells are classified in function of their sensitivity of drugs. Here, the most sensitive cells are incubated for 72 h, the middle sensitive cells for 96 h and the less sensitive or resistant cells are incubated for 108 h with drug at several concentrations.
(§3) Concentrations of 30 nM, 500 nm and 1 μM were used for determining the IC50 of drugs.
(§4) Intervals][…]] mean that IC50 is included in this interval with exclusion of the valor 30 nM.
(§5) The SW620 and SW480 cell lines are from colon tumors.

SW620 = assay: Cell death IC50, Annexin V-FITC/PI flow cytometry; assay type: cell-based; conditions: Homo sapiens, read-out: IC50 SW620
Procedure: as §1, §2, §3, §4, §5

HMLER CD24− cells = assay: Cell proliferation and formation of mammospheres; assay type: cell-based, Human
Description: FIG. 2 is a representative phase contrast photomicrographs of mammospheres formed after 11 days in the absence of any added compound (Control) or in the presence of a defined amount of salinomycine, AM5, AM9 or AM13. […] The size of the mammospheres is correlated with progenitor cell proliferation, whereas the number of mammospheres formed after serial passages at clonal density is correlated with the self-renewal capacity of primitive Cancer Stem Cells. […]
FIG. 9 represents images of the third generation of mammospheres formed from individual HMLER CD24low cells treated during 7 days with the indicated drug. The size of the mammospheres is correlated with progenitor cell proliferation capacity, whereas the number of mammospheres formed after serial passages at clonal density is correlated with the self-renewal capacity of primitive Cancer Stem Cells.
AM5, AM9, AM13 and salinomycine were assessed for their capability to inhibit cell proliferation and formation of mammospheres. […]
AM5 and AM23 and salinomycine were assessed for their capability to inhibit cell proliferation and formation of mammospheres.

[1] = Toxicity assessment (histology, body weight); assay type: in vivo, mice; conditions: effective dose
Description: FIG. 15 is a graph representing the mice body-weight during treatment with AM5. Error bars for mice body weight represent s.d. and correspond to correspond to five animals per group.
Histology. Organs from mice were removed at time of sacrifice. For morphological analyses, organs were fixed with 4% paraformaldehyde, paraffin embedded, and 4-μm sections were stained with hematoxylin and eosin (H&E). Sections were scanned at high resolution using a slide scanner (NanoZoomer 2.0-HT, Hamamatsu, Massy, France).

HMLER CD24low cells = assay: Intracellular sodium measurement (SBFI-AM); assay type: cell-based, Human; conditions: 5 min treatment
Procedure: Intracellular sodium measurement: Sodium and potassium buffers (10 mM HEPES, 1 mM CaCl2, 1 mM MgCl2, 130 mM Sodium-D-Gluconate or Potassium-D-Gluconate, 30 mM NaCl/KCl) were mixed at different ratios to produce five buffers with various sodium concentrations (0, 20, 40, 80, 160 mM). Nigericin (N7143, Sigma, 10 μM) and monensin (M5273, Sigma, 10 μM) were used to equilibrate the intracellular sodium concentration and establish a calibration curve. HMLER CD24low cells were harvested and re-suspended in ECS buffer (15 mM HEPES, 5.4 mM KCl, 140 mM NaCl, 10 mM Glucose, 1 mM MgCl2, 1.8 mM CaCl2, 0.1% BSA, pH 7.6) containing 10 μM of the sodiumspecific probe (SBFI-AM, S-1263, Molecular Probes®) and 0.2% Pluronic F-127 (P2443, Sigma) and were incubated for 1 h in the dark at 37° C. Then, cells were washed to remove excess dye and incubated for an additional 30 min in ECS buffer. […] Each well was sequentially excited at 340 and 370 nm and emission was recorded at 500 nm. The spectral response of SBFI upon sodium binding was assessed by excitation ratio measurement (340/370 nm). Measurements were performed on a Perkin Elmer Wallac 1420 Victor2 Microplate Reader at 37° C.

[2] = third generation of mammospheres, HMLER CD24low cells treated 7 days

Compound | pIC50 (HMLER CD24+ cells; HMLER CD24+ cells, cell viability) | pIC50 (SW480; SW480, 3rd sensibility (108 h), colon tumor cells) | pIC50 (SW620; SW-620, 3rd sensibility (108 h), colon tumor cells) | inhibition of cell proliferation, efficacy in comparison with salinomycine (HMLER CD24− cells; at 30 nM) | number and size of mammosphere (HMLER CD24− cells; mammospheres after 11 days, low nanomolar concentrations) | number of mammospheres (HMLER CD24− cells; [2]) | size of mammospheres (HMLER CD24− cells; [2]) | body weight throughout treatment [1] | generic toxicity (integrity of peripheral tissues) ([1]; H&E histology) | pIC50 (HMLER CD24+ cells) | pIC50 (SW480; SW480, 108 h) | pIC50 (SW620; SW-620, 108 h) | intracellular sodium (HMLER CD24low cells)
C#CCN[C@@H]1C=C[C@]2(O[C@H]([C@@H](CC)C(=O)[C@@H](C)[C@@H](O)[C@H](C)C3O[C@@H](C(CC)C(=O)O)CC[C@@H]3C)[C@@H](C)C[C@H]2C)O[C@@]12CC[C@@](C)([C@H]1CC[C@](O)(CC)[C@H](C)O1)O2 (some centres unmarked) [AM5, Sal-Propargylamine] | 5.45 | 6.30 to 7.52 | 6.30 to 7.52 | ten-fold improved efficacy | reduced the number and the size of mammosphere | reduced the number of mammospheres | do not alter the tumor diameters | constant body weight | No generic toxicity was observed |  |  |  | 
CCC(C(=O)O)[C@H]1CC[C@H](C)C([C@@H](C)[C@H](O)[C@H](C)C(=O)[C@H](CC)[C@H]2O[C@]3(C=C[C@@H](O)[C@]4(CC[C@@](C)([C@H]5CC[C@](O)(CC)[C@H](C)O5)O4)O3)[C@H](C)C[C@@H]2C)O1 (some centres unmarked) [Salinomycine, Salinomycin] |  |  |  |  |  |  | do not alter the tumor diameters |  |  | 4.96 | 6.30 to 7.52 | 6.00 to 6.30 | induced a fast increase in intracellular sodium
